The test system of this test is A431 cells with high EGFR expression. As to the kind of experiment: A431 cell viability (CellTiter-Glo viability assay). The format is cell-based. The following applies: Homo sapiens, A-431, 50 μM (30 μg/mL), after 24 h, PBS = 100% viability. The method, then:
As a comparison, the A431 cells were also treated with SPION alone, a mixture of unconjugated SPION and GOx, and doxorubicin (a chemotherapy drug).
A431 cancer cells were purchased from ATCC. They were cultured in Dulbecco's Modified Eagle Medium (DMEM) containing 10% FBS, penicillin (100 U/mL), and streptomycin (100 μg/mL) at 37° C. in a humidified atmosphere containing 5% CO2 and 95% air.
50 μL SPION, the mixture of GOx and SPION without conjugation, mAb-GOx-SPION, doxorubicin, or PBS (as a control) were each added to a 96-well plate seeded with A431 cancer cells, followed by addition of 100 μL of DMEM containing 4 g/L glucose. After being incubated for various amounts of time, the cells were washed with PBS 3 times. 100 μL DMEM was added before cell viability was measured by using a CellTiter-Glo viability assay kit.
The cytotoxic effects of the system as functions of the concentrations of both cetuximab-GOx-SPION and glucose were investigated. 50 μL cetuximab-GOx-SPION (1.0 μg/mL) was added to 96-well plates seeded with A431 and HeLa cancer cells, followed by addition of 100 μL of DMEM that contains glucose at 20 g/L. After 1.5 h incubation, the cells were washed with PBS 3 times and then cultured in 200 μL of DMEM. After being incubated for another 12 h, cell viability was measured by using CellTiter-Glo viability assay kit. […]

Structures are written as SMILES.

Regarding `COc1cccc2c1C(=O)c1c(O)c3c(c(O)c1C2=O)C[C@@](O)(C(=O)CO)C[C@@H]3O[C@H]1C[C@H](N)[C@H](O)[C@H](C)O1` [doxorubicin], the viability at 50 µM was around 3%.

The values above are taken from patent US11931423B2, “Glucose oxidase-nanoparticle bioconjugates for cancer treatment” (UNIVERSITY OF PITTSBURGH—OF THE COMMONWEALTH SYSTEM OF …, priority 2017, dated 2024).
